For this data set the following is noted: 100 kPa, Liquid, Parallel plate method.

The values below come from the NIST ThermoML archive (doi:10.1016/j.jct.2014.12.001).

Numbers after ± are expanded uncertainties.

As to `OCCO` [1,2-ethanediol], the thermal conductivity (283.15 K) is listed as 0.239 ± 0.02 W/m/K, the thermal conductivity (303.15 K) was 0.248 ± 0.02 W/m/K, the thermal conductivity (323.15 K) was determined as 0.257 ± 0.02 W/m/K and the thermal conductivity (343.15 K) was 0.266 ± 0.02 W/m/K.
For `CC(O)CO` (stereo not drawn) [1,2-propanediol], the thermal conductivity runs as follows: (283.15 K) 0.206 ± 0.02 W/m/K; (303.15 K) 0.207 ± 0.02 W/m/K; (323.15 K) 0.206 ± 0.02 W/m/K; (343.15 K) 0.207 ± 0.02 W/m/K.
